Here are results for 109 compounds from a melting point compilation (Tetko et al.).

SMILES strings stand for the structures.

Usually melting point stands for the temperature, or range, at which the solid turns liquid. For `Nc1cccc(S(=O)(=O)c2cccc(N)c2)c1`, the melting point came to 172 °C.

Compound `Sc1nccc(-c2ccco2)n1` came in with a melting point of 200 °C.

The compound `CC(=O)NC(Cc1c[nH]c2ccccc12)C(=O)O` (racemic) yielded a melting point of 204 to 206 °C.

Take `CC(C)CCC[C@@H](C)[C@H]1CC[C@H]2C3=CC=C4C[C@@H](O)CC[C@]4(C)[C@H]3CC[C@]12C`: the melting point is 150 °C.

On to `NC(=S)Nc1ccc(C(=O)O)cc1`, for which the melting point stood at 255 °C.

`CCOC(=O)C1=C(C)NC(C)=C(C(=O)OC)C1c1cccc([N+](=O)[O-])c1` (centres undefined) came in with a melting point of 158 °C.

Regarding `Cc1c(C(=O)Cl)cnn1-c1ccc(F)cc1`, the melting point lay in the range of 90 to 92 °C.

In turn, `C/C=C/c1ccc(O)c(OC)c1` had a melting point of 33.5 °C.

For `CNC(=O)ON=C(SC)C(=O)N(C)C`, the melting point was 101 °C.

For `Cc1ccc(O)c(Cl)c1C`, the melting point came to 27 °C.

Turning to `O=C(Cl)c1cc(Cl)nc2ccc(Br)cc12`, the melting point lay in the range of 140 to 142 °C.

The compound `Cc1nc(C2CCN(C(=O)OC(C)(C)C)CC2)sc1CO` returned a melting point of 150 to 153 °C.

`N#Cc1ccc(Oc2ccc(C(F)(F)F)cc2N)cc1` gave a melting point of 106 to 108 °C.

The compound `CC(NC(=O)C(C)NC(=O)C(N)CCP(C)(=O)O)C(=O)O` (centres undefined) yielded a melting point of 160 °C.

`CCC(C)c1cc([N+](=O)[O-])cc([N+](=O)[O-])c1O` (centres undefined) returned a melting point of 40 °C.

With `N#CC(c1ccc(Sc2ccccc2)nn1)c1c(Cl)cccc1Cl` (centres undefined), the melting point is 190 °C.

In the case of `CC(C)(C)OC(=O)N[C@@H](Cc1ccccc1)C(=O)O`, the melting point fell in the range of 85 to 88 °C.

`O=C(O)Cc1c(F)c(F)c(F)c(F)c1F` returned a melting point of 109 °C.

On to `Clc1ccc(-c2nnn[nH]2)cc1Cl`, for which the melting point came out at 161 °C.

With `Nc1cccnc1[N+](=O)[O-]`, the melting point is 194 to 196 °C.

For `CC(=O)OC(OC(C)=O)c1ccccc1`, the melting point amounted to 46 °C.

For `CC(C)CC(C)Br` (centres undefined), the melting point is -94 °C.

The compound `Cc1ccc(N=C(Nc2ccc(C)cc2)c2cc(C(C)(C)C)c(O)c(C(C)(C)C)c2)cc1` yielded a melting point of 207 °C.

In the case of `OCCCc1nc2ccccc2[nH]1`, the melting point is 164 to 166 °C.

On to `Nc1c([N+](=O)[O-])ccc(Oc2ccccc2)c1Cl`, for which the melting point worked out at 81.5 °C.

For the compound `CCCCCC(C)OC(=O)COc1ccc(Cl)c2cccnc12` (centres undefined), the melting point was determined as 69.4 °C.

Compound `O=c1[nH]c2ccccc2n1CCCCl` gave a melting point of 115 to 125 °C.

`Cc1cc(O)c(Cl)c(C)c1Cl` yielded a melting point of 95.5 °C.

For `FC(F)(F)c1cc(C(F)(F)F)c(C(F)(F)F)cc1C(F)(F)F`, the melting point lay in the range of 73 to 74 °C.

Compound `CCC(=O)c1ccc2c(c1)N(CCCN(C)C)c1ccccc1S2` had a melting point of 69.5 °C.

In turn, `Cc1ccc(C(=O)N(C)C)cc1` displayed a melting point of 41 °C.

`O=C1C=C(O)c2cccc3cccc1c23` had a melting point of 261 to 264 °C.

With `O=C1CC(C(=O)O)CC(=O)C1=C(O)C1CC1` (centres undefined), the melting point came out at 144 °C.

In turn, `O=P(c1ccc(Cl)cc1)(c1ccc(Cl)cc1)c1ccc(Cl)cc1` showed a melting point of 176 to 178 °C.

`O=C(Cl)c1cccnc1Sc1ccc(Cl)cc1`: the melting point fell in the range of 100 to 103 °C.

For `CC(=O)c1ccc(C)cc1`, the melting point was found to be 28 °C.

The compound `O=C(Nc1ccc(Br)cc1)c1cc(Br)cc(Br)c1O` yielded a melting point of 227 °C.

On to `O=C(C=Cc1cccc([N+](=O)[O-])c1)c1ccc(F)cc1`, for which the melting point fell in the range of 166 to 167 °C.

As to `Cn1nc(N)c2c(=O)c(C(=O)O)c[nH]c21`, the melting point is 223 to 225 °C.

`O=[N+]([O-])c1ccccc1/C=C/c1nc2ccccc2[nH]1` registered a melting point of 215 °C.

For the compound `Cc1c(C(=O)O)cccc1[N+](=O)[O-]`, the melting point was found to be 184 °C.

For the compound `CC(=S)Nc1ccccc1`, the melting point was determined as 77.5 °C.

The compound `c1ccc(-c2cccc(-c3ccccc3)n2)cc1` had a melting point of 78 °C.

Take `NC(=O)NC1NC(=O)NC1=O` (centres undefined): the melting point was found to be 238 °C.

Take `CN1CCN(Cc2ccc(C#N)cc2)CC1`: the melting point is 69 to 71 °C.

`NC(=O)C=CC(N)=O` displayed a melting point of 276 °C.

In turn, `O=C(O)c1cn2ccsc2n1` yielded a melting point of 233 to 234 °C.

Compound `Cc1ccc(C(c2ccc(C)o2)c2cc(I)ccc2O)o1` had a melting point of 104 °C.

Turning to `Cc1cc(C)c(C2(C)CC(C(=NNC(N)=S)c3cc4ccccc4o3)C2)c(C)c1` (centres undefined), the melting point lay in the range of 258 to 259 °C.

Compound `CC(C)(C)C(=O)Nc1ccccc1Cc1ccccc1` had a melting point of 86 to 90 °C.

In turn, `OCC1OC(OC2C(CO)OC(O)C(O)C2O)C(O)C(O)C1O` (centres undefined) yielded a melting point of 256 to 258 °C.

Consider `O=C(O)[C@@H]1Cc2ccccc2CN1`, for which the melting point was determined as 300 °C.

`CC(=O)OCC1OCC(OC(C)=O)(C2C=Nc3c2ncn(C2(OC(C)=O)COC(COC(C)=O)C2OC(C)=O)c3=O)C1OC(C)=O` (centres undefined) yielded a melting point of 76 °C.

For the compound `CC1CCC(C)(C(=O)CN(C)C(=S)Nc2ccccc2)C1(C)C` (centres undefined), the melting point worked out at 147 °C.

`Brc1ccc(N(c2ccc(Br)cc2)c2ccc(Br)cc2)cc1`: the melting point was found to be 142 °C.

`CCCCNC(=O)NCC(=O)O` had a melting point of 140 °C.

`C=C1C(=O)C23C(OC(C)=O)CC4C(C)(C)CCC(OC(C)=O)C4(C=O)C2C(OC(C)=O)CC1C3OC(C)=O` (centres undefined) showed a melting point of 212 °C.

In the case of `COc1cc(C2Nn3c(nnc3-c3cccc([N+](=O)[O-])c3)S2)ccc1O` (centres undefined), the melting point was found to be 165 °C.

`O=C(c1ccccc1O)N1CCOCC1`: the melting point is 175 °C.

Turning to `Cn1c(S)nnc1Cc1ccsc1`, the melting point is 130 to 133 °C.

`CCCCCCCCCCCCCCCCCC(=O)Cl` came in with a melting point of 23 °C.

Compound `Fc1ccc(NC(=S)Nc2cc(Cl)cc(Cl)c2)cc1` came in with a melting point of 164 °C.

The compound `COc1ccc(NC(=O)C(C)=O)cc1` came in with a melting point of 127 °C.

Consider `Cc1cc(C)n2nc(N)c(/N=N/c3cccc([N+](=O)[O-])c3)c2n1`, for which the melting point came to 263 °C.

`COc1ccc(C)cc1O` showed a melting point of 37 to 39 °C.

As to `COc1cc2c(cc1OC)C(=O)C2`, the melting point was determined as 141 °C.

The compound `COc1ccc(/C(C)=C/C(C)=O)cc1` came in with a melting point of 52.5 to 53 °C.

Turning to `Cc1nc(C(C)(C)C)sc1C(=O)O`, the melting point is 156 °C.

Turning to `C1CCCCCCCCCCCCCCC1`, the melting point is 61 °C.

Compound `COc1nn(-c2ccccc2)cc1/C=C/C=O` displayed a melting point of 131 to 133 °C.

`CCNc1nc(NC(C)(C)C)nc(OC)n1` returned a melting point of 124 °C.

As to `O=C(Nc1cc(C(F)(F)F)cc(C(F)(F)F)c1)c1cncc(Cl)n1`, the melting point was 133 °C.

Consider `O=C1C=C(/C=C/c2ccccc2)CCC1`, for which the melting point lay in the range of 65 to 67 °C.

For the compound `CC(=O)Nc1ccccc1-c1cc2ccccc2[nH]1`, the melting point lay in the range of 151 to 152 °C.

`Cc1ccc(S(=O)(=O)n2cc(C=O)c3ccccc32)cc1` returned a melting point of 138 to 140 °C.

For the compound `O=C(O)Cc1ccc(CBr)cc1`, the melting point was determined as 179 °C.

Turning to `O=C1c2ccc([N+](=O)[O-])cc2C(=O)N1CCCCCCBr`, the melting point fell in the range of 83 to 85 °C.

Compound `Nc1c(Cl)c(Cl)nc(C(=O)O)c1Cl` displayed a melting point of 218 °C.

On to `Cc1cc([N+](=O)[O-])c[nH]c1=O`, for which the melting point lay in the range of 230 to 234 °C.

As for `O=S(=O)(Cl)c1ccc2ncsc2c1`, the melting point lay within 118 to 119 °C.

In the case of `O=C(O)c1scc2c1OCCO2`, the melting point fell in the range of 205 to 206 °C.

Turning to `Cc1cc(C)c2c(=O)n(-c3ccc(Cl)cc3)c(S)nc2n1`, the melting point fell in the range of 324 to 326 °C.

In turn, `Fc1cccc(F)c1CCl` gave a melting point of 34 °C.

Take `CC(NC(=O)COCCN1C(=O)c2ccccc2C1=O)C(=O)NC(CCC(=O)O)C(=O)O` (centres undefined): the melting point fell in the range of 192 to 195 °C.

Compound `CC(=O)OC1CCC2(C)C(CCC3C4CC=C(C=Cc5ccccc5)C4(C)CCC32)C1` (centres undefined) came in with a melting point of 119 °C.

`CNC(=O)CCl` had a melting point of 46 °C.

`Cc1ccc(C(c2ccc(Br)cc2)c2ccc(C)o2)o1`: the melting point worked out at 64 °C.

For `CCC(CO)NC(=O)C1C=C2c3cccc4[nH]cc(c34)CC2N(C)C1` (centres undefined), the melting point turned out to be 172 °C.

As for `COC(=O)c1ccc(O)c(OC)c1`, the melting point was 64 °C.

In the case of `CC(C)CCCC(C)CCCC(C)CCCCC(C)CCCC(C)CCCC(C)C` (centres undefined), the melting point was -38 °C.

In turn, `Brc1ccc2ncccc2c1` had a melting point of 24 °C.

`CCOC(=O)c1c(NC(=O)CCl)sc2c1CCCC2`: the melting point lay in the range of 115 to 117 °C.

`CCCCCCCCC(O)C(O)CCCCCCCC(=O)O` (centres undefined): the melting point is 90 °C.

With `Nc1ccc(C(=O)O)cn1`, the melting point worked out at 312 °C.

Regarding `OCc1cccc(C(F)(F)F)c1Cl`, the melting point is 76 °C.

Compound `O=C(CCCl)c1ccc(Br)cc1` returned a melting point of 60 °C.

The compound `Cc1ccc(C)n1CC1CCNCC1` gave a melting point of 50 °C.

In turn, `O=c1occcc1O` gave a melting point of 93.8 °C.

For `O=C1N[C@@H](c2ccccc2)CO1`, the melting point lay within 130 to 133 °C.

Turning to `CC(=O)N[C@@H](CCCCN)C(=O)O`, the melting point was in the range of 256 to 258 °C.

For `O=C(O)CCN1C(=O)C=CC1=O`, the melting point came to 104 °C.

`FC(F)(F)c1ccc(N2CCOCC2)c(CCl)c1`: the melting point was in the range of 52 to 54 °C.

The compound `CCCN(CCC)CCc1cccc2c1CC(=O)N2` had a melting point of 246 °C.

Regarding `CCC1CCC(C)CC1` (centres undefined), the melting point was -80.8 °C.

In turn, `COC(=O)C1(C(=O)OC)Cc2cccc(OC)c2C(=O)O1` returned a melting point of 88.7 to 89.7 °C.

`CC(CO)c1c(O)c(O)c2c(c1O)C(=O)C(=O)C1C2(C)CCC(O)C1(C)C` (centres undefined) came in with a melting point of 214 to 216 °C.

For `Cc1csc(C(=O)Cl)c1Cl`, the melting point is 57 to 58 °C.

Turning to `NNC(=O)c1cc2ccccc2s1`, the melting point worked out at 186 °C.

For the compound `COc1ccccc1CC(=O)O`, the melting point worked out at 124 °C.
